Measured values published in paper PMC6375636, “Monotherapy with a low-dose lipopeptide HIV fusion inhibitor maintains long-term viral suppression in rhesus macaques” (PLoS Pathogens, 2019).
Like-named read-outs stand apart in the source and are kept apart here. Peptide text beside a SMILES is read from it. * marks the point of attachment. Stearoyl = CCCCCCCCCCCCCCCCCC(=O)*; Palmitoyl = CCCCCCCCCCCCCCCC(=O)*

What was measured:
[1] = molecular target: T1, HIV-1HXB2 Env (Human immunodeficiency virus type 1 group M subtype B, UniProt P04578); test: HIV-1HXB2 Env-mediated cell-cell fusion (HL2/3 effector, TZM-bl target, luciferase reporter); format: cell-based
T1 construct: HL2/3 cells, which stably express high levels of Env, Gag, Tat, Rev, and Nef proteins of the integrated HIV-1 molecular clone HXB2/3gpt; host or cells: HL2/3 cells (effector), cocultured with TZM-bl target cells
Description: The inhibitory activities of inhibitors on HIV-1HXB2 Env-mediated cell-cell fusion were determined by a reporter gene assay based on the activation of an HIV LTR-driven luciferase cassette in TZM-bl cells (target) by HIV-1 tat from HL2/3 cells (effector). Briefly, 1 x 10^4/well of TZM-bl cells were plated in 96-well plates and incubated at 37°C overnight. Then, 3 x 10^4/well of HL2/3 cells were cocultured with target cells for 6 h at 37°C in the presence or absence of an inhibitor at graded concentrations. Luciferase activity was measured using luciferase assay reagents and a Luminescence Counter (Promega, Madison, Wisconsin, USA).

[2] = tested on: HIV-1 pseudovirus, primary Env CH119.10; format: cell-based; conditions: Env CH119.10, subtype B/C; mean ± SD of 3 assays in triplicate
Outline: (§1)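 Env-pseudotyped luciferase-reporter viruses (pSG3Δenv backbone) or replication-competent clones made in HEK293T. 3-fold inhibitor dilutions preincubated 1 h at room temperature with 100 TCID50 virus, then added to TZM-bl cells (10^4/well) for 48 h at 37 °C; inhibition read as luciferase activity.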

[3] = tested on: HIV-1 pseudovirus, primary Env 92UG037.8; format: cell-based; conditions: Env 92UG037.8, subtype A; mean ± SD of 3 assays in triplicate
Outline: as §1

[4] = tested on: SHIVSF162P3; test: Therapeutic efficacy in chronically SHIV-infected rhesus monkeys; format: in vivo, Chinese rhesus macaques
[5] = tested on: NL4-3I37T/N43K pseudovirus; format: cell-based, HIV-1; conditions: T-20 resistant, mean ± SD of 3 assays in triplicate
Description: (§2) The inhibitory activities of inhibitors against HIV-1 pseudoviruses and replication-competent isolates were measured as described previously. Briefly, HIV-1 pseudoviruses were generated via the cotransfection of HEK293T cells with an Env-expressing plasmid and a backbone plasmid that encodes Env-defective, luciferase-expressing HIV-1 genome (pSG3Δenv). Viral stocks of replication-competent HIV-1 isolates were generated by transfecting viral molecular clones into HEK293T cells. […] Inhibitors were prepared in 3-fold dilutions, mixed with 100 TCID50 of a virus, and then incubated for 1 h at room temperature. […] Luciferase activity was measured as described above.

[6] = tested on: NL4-3I37T pseudovirus; format: cell-based, HIV-1; conditions: T-20 resistant, mean ± SD of 3 assays in triplicate
Description: as §2

[7] = tested on: NL4-3V38M pseudovirus; format: cell-based, HIV-1; conditions: T-20 resistant, mean ± SD of 3 assays in triplicate
Description: as §2

[8] = tested on: NL4-3G36S/V38M pseudovirus; format: cell-based, HIV-1; conditions: T-20 resistant, mean ± SD of 3 assays in triplicate
Description: as §2

[9] = tested on: NL4-3Q40H pseudovirus; format: cell-based, HIV-1; conditions: T-20 resistant, mean ± SD of 3 assays in triplicate
Description: as §2

[10] = tested on: NL4-3V38A pseudovirus; format: cell-based, HIV-1; conditions: T-20 resistant, mean ± SD of 3 assays in triplicate
Description: as §2

[11] = tested on: NL4-3N43K pseudovirus; format: cell-based, HIV-1; conditions: T-20 resistant, mean ± SD of 3 assays in triplicate
Description: as §2

T1 sequence (P04578 512-856): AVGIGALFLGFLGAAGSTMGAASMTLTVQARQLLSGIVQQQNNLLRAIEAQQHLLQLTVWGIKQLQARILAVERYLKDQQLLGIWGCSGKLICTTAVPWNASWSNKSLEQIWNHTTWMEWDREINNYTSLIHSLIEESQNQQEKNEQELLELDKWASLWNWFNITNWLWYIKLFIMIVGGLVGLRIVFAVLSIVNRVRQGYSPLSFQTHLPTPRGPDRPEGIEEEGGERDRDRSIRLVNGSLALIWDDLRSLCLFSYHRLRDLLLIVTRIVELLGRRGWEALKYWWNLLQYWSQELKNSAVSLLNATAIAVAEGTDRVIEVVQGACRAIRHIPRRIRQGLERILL

CCCCCCCCCCCCCCCC(=O)NCCCC[C@H](NC(=O)[C@H](CCC(=O)O)NC(=O)[C@H](CC(C)C)NC(=O)[C@H](CCCCN)NC(=O)[C@H](CCCCN)NC(=O)[C@H](CC(C)C)NC(=O)[C@H](CCC(=O)O)NC(=O)[C@H](CCC(=O)O)NC(=O)[C@H](CCC(=O)O)NC(=O)[C@H](CC(N)=O)NC(=O)[C@H](CCCCN)NC(=O)[C@H](CCCCN)NC(=O)[C@H](CCC(N)=O)NC(=O)[C@H](CCC(N)=O)NC(=O)[C@H](CCC(=O)O)NC(=O)[C@H](CCC(=O)O)NC(=O)[C@H](C)NC(=O)[C@H](CCCCN)NC(=O)[C@H](CCCCN)NC(=O)[C@H](CC(C)C)NC(=O)[C@H](CC(C)C)NC(=O)[C@H](CCC(=O)O)NC(=O)[C@H](CCC(=O)O)NC(=O)[C@@H](NC(=O)[C@H](CCCCN)NC(=O)[C@H](CCC(N)=O)NC(=O)[C@H](CCC(=O)O)NC(=O)[C@H](Cc1c[nH]c2ccccc12)NC(C)=O)[C@@H](C)CC)C(N)=O [LP-52, reference compound] (Ac-WEQKIEELLKKAEEQQKKNEEELKKLEK(Palmitoyl)-NH2) gave an IC50 [1] of 0.0187 ± 0.00301 nM, an IC50 [2] of 0.0106 ± 0.00162 nM and an IC50 [3] of 0.0282 ± 0.00827 nM.
In the case of CCCCCCCCCCCCCCCCCC(=O)NCCCC[C@H](NC(=O)[C@H](CCC(=O)O)NC(=O)[C@H](CC(C)C)NC(=O)[C@H](CCCCN)NC(=O)[C@H](CCCCN)NC(=O)[C@H](CC(C)C)NC(=O)[C@H](CCC(=O)O)NC(=O)[C@H](CCC(=O)O)NC(=O)[C@H](CCC(=O)O)NC(=O)[C@H](CC(N)=O)NC(=O)[C@H](CCCCN)NC(=O)[C@H](CCCCN)NC(=O)[C@H](CCC(N)=O)NC(=O)[C@H](CCC(N)=O)NC(=O)[C@H](CCC(=O)O)NC(=O)[C@H](CCC(=O)O)NC(=O)[C@H](C)NC(=O)[C@H](CCCCN)NC(=O)[C@H](CCCCN)NC(=O)[C@H](CC(C)C)NC(=O)[C@H](CC(C)C)NC(=O)[C@H](CCC(=O)O)NC(=O)[C@H](CCC(=O)O)NC(=O)[C@@H](NC(=O)[C@H](CCCCN)NC(=O)[C@H](CCC(N)=O)NC(=O)[C@H](CCC(=O)O)NC(=O)[C@H](Cc1c[nH]c2ccccc12)NC(C)=O)[C@@H](C)CC)C(N)=O [LP-80] (Ac-WEQKIEELLKKAEEQQKKNEEELKKLEK(Stearoyl)-NH2), the Plasma viral load ([4]; 1st treatment, SC 3 mg/kg once daily, monkeys K3 and K5, 8 days after treatment, detection limit 100 copies/ml) is reported as “declined to below the detection limit”, the “Viral replication during treatment” value ([4]; 1st treatment, SC 3 mg/kg once every 4 days for 4 weeks, five monkeys) is reported as “fully controlled” and the “Viral rebound during treatment” value ([4]; 2nd treatment, SC 3 mg/kg twice weekly for 6 months) is reported as “no viral rebound was detected”. For the same compound, the “Plasma viral load after one injection” value ([4]; 2nd treatment, SC 3 mg/kg twice weekly, all five monkeys, day 4, before: mean 4.5 log10 RNA copies/ml) was “below the detection limit”, the “PBMC vDNA load” value ([4]; 2nd treatment, monkeys K1, K2, K4, K5, detection limit 100 copies/μg total DNA) was “undetectable levels” and the “Time to viral load rebound after LP-80 was stopped” value ([4]; after 1st treatment, all treated monkeys) was 10 to 21 days. For the same compound, the “Time to virus rebound after LP-80 cessation” value ([4]; after 2nd treatment, four monkeys (K1 to K4)) was 14 to 28 days, the “Viral load after LP-80 withdrawal” value ([4]; after 2nd treatment, monkey K5, 2 months after withdrawal) was “remained undetectable” and the “Mean PBMC vDNA load” value ([4]; after a 2-month treatment (2nd treatment), declined from 3.7, quantitative PCR) was 2.3 log10 vDNA copies/μg total DNA. The IC50 [5] was 3.79 ± 0.05 nM, the IC50 [6] was 0.05 nM and the IC50 [7] was 0.13 ± 0.02 nM. It also gave an IC50 [8] of 0.07 ± 0.01 nM, an IC50 [9] of 0.13 ± 0.02 nM and an IC50 [10] of 0.23 ± 0.03 nM. For the same compound, the IC50 [11] was 0.25 ± 0.02 nM, the “Injection site reactions (ISRs)” value (SC 3 mg/kg during the treatment) was “did not cause significant injection site reactions” and the TG (after 1st treatment (DPI 263), before (DPI 191) 0.58 ± 0.14) was 0.51 ± 0.07 mmol/L. It also gave an IgA (after 1st treatment (DPI 263), before (DPI 191) 0.93 ± 0.33) of 1.05 ± 0.12 g/L, an IgM (after 1st treatment (DPI 263), before (DPI 191) 1.28 ± 0.6) of 1.12 ± 0.56 g/L and an LDL-C (after 1st treatment (DPI 263), before (DPI 191) 1.73 ± 0.44) of 1.56 ± 0.37 mmol/L. For the same compound, the Ca (after 1st treatment (DPI 263), before (DPI 191) 2.36 ± 0.11) was 2.4 ± 0.06 mmol/L, the HDL-C (after 1st treatment (DPI 263), before (DPI 191) 2.46 ± 0.07) was 1.96 ± 0.26 mmol/L and the UA (after 1st treatment (DPI 263), before (DPI 191) 3.08 ± 0.61) was 3.25 ± 0.54 µmol/L. For the same compound, the GLU (after 1st treatment (DPI 263), before (DPI 191) 4.32 ± 0.32) was 5.02 ± 0.98 mmol/L, the CHO (after 1st treatment (DPI 263), before (DPI 191) 4.42 ± 0.19) was 3.90 ± 0.53 mmol/L and the ALP (after 1st treatment (DPI 263), before (DPI 191) 4.6 ± 1.52) was 4.2 ± 1.3 U/L. It also gave a K (after 1st treatment (DPI 263), before (DPI 191) 4.62 ± 0.13) of 4.56 ± 0.18 mmol/L, a TBIL (after 1st treatment (DPI 263), before (DPI 191) 6.11 ± 1.57) of 5.52 ± 0.82 µmol/L and an IgG (after 1st treatment (DPI 263), before (DPI 191) 7.12 ± 0.72) of 8.6 ± 1.74 g/L. For the same compound, the GGT (after 1st treatment (DPI 263), before (DPI 191) 7.4 ± 1.82) was 9.2 ± 3.83 U/L, the UN (after 1st treatment (DPI 263), before (DPI 191) 8.14 ± 2) was 8.38 ± 0.74 mmol/L and the AST (after 1st treatment (DPI 263), before (DPI 191) 32.4 ± 3.29) was 30.8 ± 3.27 U/L. For the same compound, the CK (after 1st treatment (DPI 263), before (DPI 191) 46.4 ± 9.81) was 56.6 ± 10.01 U/L, the TP (after 1st treatment (DPI 263), before (DPI 191) 74 ± 4.53) was 71.26 ± 1.76 g/L and the TG (after 2nd treatment (DPI 508), before (DPI 325) 0.67 ± 0.13) was 0.62 ± 0.21 mmol/L. For the same compound, the IgA (after 2nd treatment (DPI 508), before (DPI 325) 0.76 ± 0.31) was 0.86 ± 0.18 g/L, the IgM (after 2nd treatment (DPI 508), before (DPI 325) 1.41 ± 0.29) was 1.49 ± 0.29 g/L and the P (after 2nd treatment (DPI 508), before (DPI 325) 1.74 ± 0.19) was 1.29 ± 0.24 mmol/L. The HDL-C (after 2nd treatment (DPI 508), before (DPI 325) 2.46 ± 0.31) was 2.66 ± 0.45 mmol/L, the UA (after 2nd treatment (DPI 508), before (DPI 325) 2.54 ± 0.28) was 2.54 ± 0.73 µmol/L and the CHO (after 2nd treatment (DPI 508), before (DPI 325) 3.87 ± 0.44) was 4.02 ± 0.51 mmol/L. The K (after 2nd treatment (DPI 508), before (DPI 325) 4.7 ± 0.2) was 4.64 ± 0.26 mmol/L, the TBIL (after 2nd treatment (DPI 508), before (DPI 325) 5.92 ± 0.9) was 5.52 ± 0.9 µmol/L and the UN (after 2nd treatment (DPI 508), before (DPI 325) 9.34 ± 1.26) was 7.99 ± 0.92 mmol/L. For the same compound, the ALT (after 2nd treatment (DPI 508), before (DPI 325) 12.8 ± 3.27) was 13.2 ± 2.86 U/L, the AST (after 2nd treatment (DPI 508), before (DPI 325) 27.2 ± 3.11) was 31.4 ± 4.45 U/L and the CK (after 2nd treatment (DPI 508), before (DPI 325) 54.6 ± 10.74) was 55.4 ± 14.19 U/L. For the same compound, the Systemic toxicities (blood biochemical parameters, CD4+ and CD8+ T lymphocytes monitored) was “No systemic toxicities were observed”, the ALP (rhesus monkey, in vivo) was 7.4 ± 2.07 U/L and the ALT (rhesus monkey, in vivo) was 15.8 ± 3.27 U/L. It also gave a Ca (rhesus monkey, in vivo) of 2.19 ± 0.03 mmol/L, a GGT (rhesus monkey, in vivo) of 10.4 ± 1.95 U/L and an IgG (rhesus monkey, in vivo) of 8.52 ± 1.32 g/L. The LDH (rhesus monkey, in vivo) was 262.8 ± 48.26 U/L, the LDL-C (rhesus monkey, in vivo) was 1.32 ± 0.32 mmol/L and the P (rhesus monkey, in vivo) was 0.98 ± 0.07 mmol/L. For the same compound, the TP (rhesus monkey, in vivo) was 71.15 ± 2.86 g/L, the IC50 [1] was 0.0126 nM and the IC50 [2] was 0.0047 ± 0.00035 nM. For the same compound, the IC50 [3] was 0.00372 ± 0.001 nM.
